From ChEMBL document CHEMBL1909046, “DrugMatrix in vitro pharmacology data”

Key:
[1] = DRUGMATRIX: Interleukin IL-1 radioligand binding (ligand: [125I] interleukin 1beta); assay type: cell membranes, Membrane; conditions: nih3t3; Not Active = under 50% inhibition at 10 µM
[2] = DRUGMATRIX: Imidazoline I2, Central radioligand binding (ligand: [3H] Idazoxan); assay type: cell membranes, Rattus norvegicus, Wistar, Cerebral cortex, Membrane; conditions: Not Active = under 50% inhibition at 10 µM
[3] = DRUGMATRIX: Glutamate, AMPA radioligand binding (ligand: [3H] AMPA); assay type: cell membranes, Rattus norvegicus, Wistar, Cerebral cortex, Membrane; conditions: Not Active = under 50% inhibition at 10 µM
Cytochrome P450 2C19 = Cytochrome P450 2C19 (Homo sapiens, UniProt P33261); conditions: bti-tn-5b1-4; further: in other assays of this panel Not Active means under 50% inhibition at 10 µM
[4] = target: T1, Amine oxidase [flavin-containing] A (Homo sapiens, UniProt P21397); experiment: DRUGMATRIX: Monoamine Oxidase MAO-A enzyme inhibition (substrate: Kynuramine); parameters: species or system BTI-TN-5B1-4; conditions: bti-tn-5b1-4; Not Active = under 50% inhibition at 10 µM
T1 sequence (P21397 whole entry): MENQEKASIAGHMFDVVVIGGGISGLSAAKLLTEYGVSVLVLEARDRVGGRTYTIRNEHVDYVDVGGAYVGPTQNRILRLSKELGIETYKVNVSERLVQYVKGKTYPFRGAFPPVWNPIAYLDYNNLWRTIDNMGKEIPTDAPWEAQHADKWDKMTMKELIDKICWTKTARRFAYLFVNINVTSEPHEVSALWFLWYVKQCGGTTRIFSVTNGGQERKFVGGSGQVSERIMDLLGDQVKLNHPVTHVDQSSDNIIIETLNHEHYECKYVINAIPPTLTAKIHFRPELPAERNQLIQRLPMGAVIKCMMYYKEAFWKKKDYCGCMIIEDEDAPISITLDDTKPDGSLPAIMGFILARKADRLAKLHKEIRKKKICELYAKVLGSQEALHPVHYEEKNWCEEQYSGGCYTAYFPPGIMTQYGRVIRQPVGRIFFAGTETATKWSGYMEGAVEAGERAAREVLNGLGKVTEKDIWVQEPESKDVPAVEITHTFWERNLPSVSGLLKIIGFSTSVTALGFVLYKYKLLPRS

Nitric oxide synthase 1 = Nitric oxide synthase 1 (Rattus norvegicus, UniProt P29476); assay type: tissue-based, Cerebellum; further: in other assays of this panel Not Active means under 50% inhibition at 10 µM
[5] = target: T2, 3-hydroxy-3-methylglutaryl-coenzyme A reductase (Homo sapiens, UniProt P04035); parameters: species or system Escherichia coli;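 further: enzyme inhibition assay of HMG-CoA reductase using radiolabeled [14C]HMG-CoA as substrate; in other assays of this panel Not Active means under 50% inhibition at 10 µM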
T2 sequence (P04035 whole entry): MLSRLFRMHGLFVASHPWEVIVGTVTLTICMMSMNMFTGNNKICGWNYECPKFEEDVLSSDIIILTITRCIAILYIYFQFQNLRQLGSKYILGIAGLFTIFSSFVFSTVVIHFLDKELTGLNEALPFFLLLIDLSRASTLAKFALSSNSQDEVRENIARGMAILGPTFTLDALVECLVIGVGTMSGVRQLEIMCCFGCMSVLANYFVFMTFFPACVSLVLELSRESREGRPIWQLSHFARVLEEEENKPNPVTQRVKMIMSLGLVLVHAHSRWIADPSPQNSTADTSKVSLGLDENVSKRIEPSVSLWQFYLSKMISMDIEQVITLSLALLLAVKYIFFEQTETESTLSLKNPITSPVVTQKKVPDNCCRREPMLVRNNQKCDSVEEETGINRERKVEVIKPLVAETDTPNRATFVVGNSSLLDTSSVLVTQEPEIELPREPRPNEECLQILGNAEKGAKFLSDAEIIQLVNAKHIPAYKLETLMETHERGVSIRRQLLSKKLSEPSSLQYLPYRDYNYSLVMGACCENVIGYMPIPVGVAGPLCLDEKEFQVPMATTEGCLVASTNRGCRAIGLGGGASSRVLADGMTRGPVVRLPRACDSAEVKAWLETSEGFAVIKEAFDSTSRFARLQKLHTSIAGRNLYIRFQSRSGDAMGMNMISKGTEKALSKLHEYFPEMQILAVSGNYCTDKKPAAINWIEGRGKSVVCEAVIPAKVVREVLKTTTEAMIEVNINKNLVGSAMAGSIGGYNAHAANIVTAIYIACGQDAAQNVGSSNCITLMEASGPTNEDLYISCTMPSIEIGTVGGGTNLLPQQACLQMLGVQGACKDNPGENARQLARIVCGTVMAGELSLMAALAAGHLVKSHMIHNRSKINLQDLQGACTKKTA

Sequence of Nitric oxide synthase 1 (P29476 whole entry): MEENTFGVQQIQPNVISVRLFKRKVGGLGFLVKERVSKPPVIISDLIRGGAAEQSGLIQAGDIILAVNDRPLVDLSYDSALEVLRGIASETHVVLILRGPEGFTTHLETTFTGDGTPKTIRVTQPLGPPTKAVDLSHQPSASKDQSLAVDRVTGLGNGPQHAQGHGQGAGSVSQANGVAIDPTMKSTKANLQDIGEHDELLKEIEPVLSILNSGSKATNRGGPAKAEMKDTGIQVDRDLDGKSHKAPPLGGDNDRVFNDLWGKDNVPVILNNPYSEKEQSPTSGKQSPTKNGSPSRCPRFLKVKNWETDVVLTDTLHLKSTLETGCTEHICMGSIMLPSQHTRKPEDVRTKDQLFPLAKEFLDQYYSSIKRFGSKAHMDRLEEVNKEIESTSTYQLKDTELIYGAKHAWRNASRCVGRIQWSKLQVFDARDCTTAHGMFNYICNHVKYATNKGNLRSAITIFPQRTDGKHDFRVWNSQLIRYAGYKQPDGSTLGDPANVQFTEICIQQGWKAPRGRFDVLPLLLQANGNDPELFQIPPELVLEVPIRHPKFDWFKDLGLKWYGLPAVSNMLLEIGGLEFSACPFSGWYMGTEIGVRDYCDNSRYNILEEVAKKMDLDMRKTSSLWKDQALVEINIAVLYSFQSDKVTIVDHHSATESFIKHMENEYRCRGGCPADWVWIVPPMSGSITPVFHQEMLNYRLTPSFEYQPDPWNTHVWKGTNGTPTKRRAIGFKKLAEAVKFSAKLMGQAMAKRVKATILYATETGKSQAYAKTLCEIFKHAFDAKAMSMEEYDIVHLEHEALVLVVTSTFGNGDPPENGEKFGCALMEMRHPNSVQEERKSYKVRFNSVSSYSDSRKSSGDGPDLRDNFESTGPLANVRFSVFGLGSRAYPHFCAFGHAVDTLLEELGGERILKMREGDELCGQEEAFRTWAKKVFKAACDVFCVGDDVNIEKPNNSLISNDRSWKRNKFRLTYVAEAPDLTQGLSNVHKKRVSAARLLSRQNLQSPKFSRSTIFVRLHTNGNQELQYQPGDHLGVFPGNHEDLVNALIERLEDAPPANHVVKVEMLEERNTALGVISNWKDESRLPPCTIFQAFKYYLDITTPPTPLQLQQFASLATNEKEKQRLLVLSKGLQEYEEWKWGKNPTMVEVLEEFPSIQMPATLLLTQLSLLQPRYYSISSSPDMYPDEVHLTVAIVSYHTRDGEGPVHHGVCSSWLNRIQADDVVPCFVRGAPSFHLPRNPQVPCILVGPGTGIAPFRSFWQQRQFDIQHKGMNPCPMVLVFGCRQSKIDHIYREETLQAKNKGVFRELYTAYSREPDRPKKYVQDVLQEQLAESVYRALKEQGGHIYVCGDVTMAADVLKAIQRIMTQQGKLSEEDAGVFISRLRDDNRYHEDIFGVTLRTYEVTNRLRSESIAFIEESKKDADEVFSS
Sequence of Cytochrome P450 2C19 (P33261 whole entry): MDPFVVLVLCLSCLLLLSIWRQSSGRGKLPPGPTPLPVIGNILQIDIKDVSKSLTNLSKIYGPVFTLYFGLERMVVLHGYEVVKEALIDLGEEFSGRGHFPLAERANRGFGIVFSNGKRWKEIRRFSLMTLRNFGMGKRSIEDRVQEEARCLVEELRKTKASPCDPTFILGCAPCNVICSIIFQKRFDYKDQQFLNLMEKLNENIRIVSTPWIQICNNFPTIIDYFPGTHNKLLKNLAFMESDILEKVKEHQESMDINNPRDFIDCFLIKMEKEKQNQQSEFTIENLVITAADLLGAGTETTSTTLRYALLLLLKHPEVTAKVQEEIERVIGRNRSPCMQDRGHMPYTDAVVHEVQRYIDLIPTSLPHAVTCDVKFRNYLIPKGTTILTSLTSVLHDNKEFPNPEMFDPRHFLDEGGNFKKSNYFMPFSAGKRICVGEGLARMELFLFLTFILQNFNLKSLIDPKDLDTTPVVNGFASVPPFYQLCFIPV

COc1cc(CNC(=O)CCCC/C=C/C(C)C)ccc1O [CAPSAICIN]
Not Active: IC50 [1] | Ki [1] | IC50 [2] | Ki [2] | IC50 [3] | Ki [3] | IC50 (Cytochrome P450 2C19) | Ki (Cytochrome P450 2C19) | IC50 [4] | IC50 (Nitric oxide synthase 1) | IC50 [5]

CN(C(=O)CCCOc1ccc2[nH]c(=O)ccc2c1)C1CCCCC1 [CILOSTAMIDE]
Not Active: IC50 [1] | Ki [1] | IC50 [2] | Ki [2] | IC50 [3] | Ki [3] | IC50 (Cytochrome P450 2C19) | Ki (Cytochrome P450 2C19) | IC50 [4] | IC50 (Nitric oxide synthase 1) | IC50 [5]

CC(=O)OCC(CCn1cnc2cnc(N)nc21)COC(C)=O [FAMCICLOVIR]
Not Active: IC50 [1] | Ki [1] | IC50 [2] | Ki [2] | IC50 [3] | Ki [3] | IC50 (Cytochrome P450 2C19) | Ki (Cytochrome P450 2C19) | IC50 [4] | IC50 (Nitric oxide synthase 1) | IC50 [5]

COC(=O)c1ccccc1O [METHYL SALICYLATE]
Not Active: IC50 [1] | Ki [1] | IC50 [2] | Ki [2] | IC50 [3] | Ki [3] | IC50 (Cytochrome P450 2C19) | Ki (Cytochrome P450 2C19) | IC50 [4] | IC50 (Nitric oxide synthase 1) | IC50 [5]

C[C@H]([C@](O)(Cn1cncn1)c1ccc(F)cc1F)S(C)(=O)=O [GENACONAZOLE]
Not Active: IC50 [1] | Ki [1] | IC50 [2] | Ki [2] | IC50 [3] | Ki [3] | IC50 (Cytochrome P450 2C19) | Ki (Cytochrome P450 2C19) | IC50 [4] | IC50 (Nitric oxide synthase 1) | IC50 [5]

Clc1cc2c(cc1Cl)Oc1cc(Cl)c(Cl)cc1O2 [2,3,7,8-TETRACHLORODIBENZO-P-DIOXIN]
Not Active: IC50 [1] | Ki [1] | IC50 [2] | Ki [2] | IC50 [3] | Ki [3] | IC50 (Cytochrome P450 2C19) | Ki (Cytochrome P450 2C19) | IC50 [4] | IC50 (Nitric oxide synthase 1) | IC50 [5]

Nn1nnc2ccccc21
Not Active: IC50 [1] | Ki [1] | IC50 [2] | Ki [2] | IC50 [3] | Ki [3] | IC50 (Cytochrome P450 2C19) | Ki (Cytochrome P450 2C19) | IC50 [4] | IC50 (Nitric oxide synthase 1) | IC50 [5]

COc1ccccc1OCC(O)COC(N)=O (stereo not drawn) [METHOCARBAMOL]
Not Active: IC50 [1] | Ki [1] | IC50 [2] | Ki [2] | IC50 [3] | Ki [3] | IC50 (Cytochrome P450 2C19) | Ki (Cytochrome P450 2C19) | IC50 [4] | IC50 (Nitric oxide synthase 1) | IC50 [5]

CC(C(=O)O)c1ccc(-c2ccccc2)c(F)c1 (stereo not drawn) [FLURBIPROFEN]
Not Active: IC50 [1] | Ki [1] | IC50 [2] | Ki [2] | IC50 [3] | Ki [3] | IC50 (Cytochrome P450 2C19) | Ki (Cytochrome P450 2C19) | IC50 [4] | IC50 (Nitric oxide synthase 1) | IC50 [5]

Cc1c(F)c(N2CCNC(C)C2)cc2c1c(=O)c(C(=O)O)cn2C1CC1 (stereo not drawn) [GREPAFLOXACIN]
Not Active: IC50 [1] | Ki [1] | IC50 [2] | Ki [2] | IC50 [3] | Ki [3] | IC50 (Cytochrome P450 2C19) | Ki (Cytochrome P450 2C19) | IC50 [4] | IC50 (Nitric oxide synthase 1) | IC50 [5]

Oc1ccccc1O [CATECHOL]
Not Active: IC50 [1] | Ki [1] | IC50 [2] | Ki [2] | IC50 [3] | Ki [3] | IC50 (Cytochrome P450 2C19) | Ki (Cytochrome P450 2C19) | IC50 [4] | IC50 (Nitric oxide synthase 1) | IC50 [5]

O=P1(N(CCCl)CCCl)NCCCO1 (stereo not drawn) [CYCLOPHOSPHAMIDE ANHYDROUS]
Not Active: IC50 [1] | Ki [1] | IC50 [2] | Ki [2] | IC50 [3] | Ki [3] | IC50 (Cytochrome P450 2C19) | Ki (Cytochrome P450 2C19) | IC50 [4] | IC50 (Nitric oxide synthase 1) | IC50 [5]

INSULIN HUMAN
Not Active: IC50 [1] | Ki [1] | IC50 [2] | Ki [2] | IC50 [3] | Ki [3] | IC50 (Cytochrome P450 2C19) | Ki (Cytochrome P450 2C19) | IC50 [4] | Ki [4] | IC50 (Nitric oxide synthase 1) | Ki (Nitric oxide synthase 1) | IC50 [5] | Ki [5]

CS(=O)(=O)OCCCCOS(C)(=O)=O [BUSULFAN]
Not Active: IC50 [1] | Ki [1] | IC50 [2] | Ki [2] | IC50 [3] | Ki [3] | IC50 (Cytochrome P450 2C19) | Ki (Cytochrome P450 2C19) | IC50 [4] | IC50 (Nitric oxide synthase 1) | IC50 [5]

CC(C)(CO)C(O)C(=O)NCCCO (stereo not drawn) [PANTHENOL]
Not Active: IC50 [1] | Ki [1] | IC50 [2] | Ki [2] | IC50 [3] | Ki [3] | IC50 (Cytochrome P450 2C19) | Ki (Cytochrome P450 2C19) | IC50 [4] | IC50 (Nitric oxide synthase 1) | IC50 [5]

O=C(O)c1cc(=O)c2c(OCC(O)COc3cccc4oc(C(=O)O)cc(=O)c34)cccc2o1 [CROMOLYN]
Not Active: IC50 [1] | Ki [1] | IC50 [2] | Ki [2] | IC50 [3] | Ki [3] | IC50 (Cytochrome P450 2C19) | Ki (Cytochrome P450 2C19) | IC50 [4] | IC50 (Nitric oxide synthase 1) | IC50 [5]

O=C(/C=C/c1ccc(O)c(O)c1)OCCc1ccccc1 [CAFFEIC ACID PHENETHYL ESTER]
Not Active: IC50 [1] | Ki [1] | IC50 [2] | Ki [2] | IC50 [3] | Ki [3] | IC50 (Cytochrome P450 2C19) | Ki (Cytochrome P450 2C19) | IC50 [4] | IC50 (Nitric oxide synthase 1) | IC50 [5]

Nc1nc(Cl)nc2c1ncn2[C@H]1C[C@H](O)[C@@H](CO)O1 [CLADRIBINE]
Not Active: IC50 [1] | Ki [1] | IC50 [2] | Ki [2] | IC50 [3] | Ki [3] | IC50 (Cytochrome P450 2C19) | Ki (Cytochrome P450 2C19) | IC50 [4] | IC50 (Nitric oxide synthase 1) | IC50 [5]

CCOC(=O)n1ccn(C)c1=S [CARBIMAZOLE]
Not Active: IC50 [1] | Ki [1] | IC50 [2] | Ki [2] | IC50 [3] | Ki [3] | IC50 (Cytochrome P450 2C19) | Ki (Cytochrome P450 2C19) | IC50 [4] | IC50 (Nitric oxide synthase 1) | IC50 [5]

C#C[C@]1(O)CC[C@H]2[C@@H]3CCC4=Cc5oncc5C[C@]4(C)[C@H]3CC[C@@]21C [DANAZOL]
Not Active: IC50 [1] | Ki [1] | IC50 [2] | Ki [2] | IC50 [3] | Ki [3] | IC50 (Cytochrome P450 2C19) | Ki (Cytochrome P450 2C19) | IC50 [4] | IC50 (Nitric oxide synthase 1) | IC50 [5]
